{"source": "paper PMC12729524", "about": "“Enhancement of Structural Stability and IgG Affinity of a Z34C-Derived α-Helical Peptide via Lactam Stapling” (Antibodies, 2025)", "key": {"α-chymotrypsin": {"molecular_target": "α-chymotrypsin (Bos taurus, UniProt P00766)", "conditions": "100 μM peptide in DPBS, peptide-to-enzyme mass ratio 100:1, time points 0, 1, 5, 15, 30, 60 min, stopped with 0.1% TFA, RP-HPLC read-out", "procedure": "Peptides were prepared at a concentration of 100 μM in DPBS, and α-chymotrypsin was added to achieve a final peptide-to-enzyme mass ratio of 100:1. The digestion was carried out at time points of 0, 1, 5, 15, 30, and 60 min, after which 0.1% TFA was added to terminate the reaction. The resulting samples were analyzed by reversed-phase HPLC (water/acetonitrile with 0.1% TFA) to monitor peptide stability."}, "FITC-labeled human IgG": {"system": "FITC-labeled human IgG", "experiment": "IgG capture test on peptide-functionalized glass slides, fluorescence imaging", "assay_type": "binding", "conditions": "peptide immobilized via thiol-maleimide on PEG-modified epoxy glass slide; antibody 5 µg/mL in PBS, 25 °C, 3 h; ImageJ; n = 1", "experimental": "Epoxy-functionalized microscope glass slides (Tekdon Incorporated, Myakka City, FL, USA) were mounted in eight-well chambers. For peptide immobilization, NH2-PEG5000-COOH linkers (Biopharma PEG, Watertown, MA, USA) were applied to each well at a concentration of 1 mg/mL in ddH2O and incubated for ~5 h. The slides were then rinsed three times with ddH2O. Carboxyl groups of NH2-PEG5000-COOH linkers were activated for 30 min using 4 µg/mL 1-ethyl-3-(3-dimethylaminopropyl) carbodiimide hydrochloride (EDC; Thermo Fisher Scientific, Waltham, MA, USA) and 6 µg/mL N-hydroxy succinimide (NHS; Thermo Fisher Scientific) in ddH2O. Upon activation, the surfaces were washed three times with 1× PBS (Gibco, Grand Island, NY, USA) and incubated for over 5 h with an excess of NH2-PEG1000-MAL linkers (1 mg/mL in 1× PBS; Biopharma PEG). […]\n[…] (Abcam, Cambridge, UK) were used to evaluate the antibody-binding capacity of each functionalized surface. […] The amount of surface-captured antibody was quantified via fluorescence imaging. […] Fluorescence intensity was analyzed using Image J software (64-bit Java 8). […]\nFigure 3 IgG capture assay using FITC-labeled human IgG to evaluate the Fc-binding capability of peptides. […] (C) Quantitative fluorescence intensity analysis performed using ImageJ software (64-bit Java 8). […]"}}, "note": "Where a SMILES comes first, the peptide text is derived from it.", "data": [{"compound": "CSCC[C@H](NC(=O)[C@H](CC(N)=O)NC(=O)[C@@H](N)Cc1ccccc1)C(=O)N[C@@H](CCC(N)=O)C(=O)N[C@@H](C)C(=O)N[C@@H](CCC(N)=O)C(=O)N[C@@H](CCCNC(=N)N)C(=O)N[C@@H](CCCNC(=N)N)C(=O)N[C@@H](Cc1ccccc1)C(=O)N[C@@H](Cc1ccc(O)cc1)C(=O)N[C@@H](CCC(=O)O)C(=O)N[C@@H](C)C(=O)N[C@@H](CC(C)C)C(=O)N[C@@H](Cc1c[nH]cn1)C(=O)N[C@@H](CS)C(N)=O", "note": "[SpA h1] (H-FNMQAQRRFYEALHC-NH2)", "values": [{"measurement": "time within which most of the peptide signal disappeared on α-chymotrypsin treatment", "setting": "α-chymotrypsin", "result": "≤ 1", "unit": "min"}]}, {"compound": "Protein A: Fc-binding protein of Staphylococcus aureus, positive control of the IgG capture test", "values": [{"measurement": "IgG-binding capacity (fluorescence intensity of captured IgG), in words", "setting": "FITC-labeled human IgG", "result": "strong signal intensity"}]}]}
